The source of these data is patent US20230085307A1, “PYRIDAZINONE COMPOUND AND HERBICIDE” (NISSAN CHEMICAL CORPORATION, priority 2019, published 2023).

Structures are written as SMILES.

Experiment [1] deals with barnyard grass. Kind of experiment: Test Example 3: herbicidal effect by foliage application, Wagner pot (Table 18, symbol H). The conditions noted are these: amount of applied herbicide 320 g/ha. It is filed as in vivo, barnyard grass (Echinochloa crus-galli). The method, boiled down:
(§1)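 Plants were sown in alluvial soil held under 0.1–0.5 cm standing water and grown 14 days in a greenhouse at 25–30 °C. An emulsifiable formulation, water-diluted to the set dose, was then sprayed onto the foliage, and effects were scored three weeks later using previously defined criteria.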

The subject of experiment [2] is barnyard grass. Kind of experiment: Test Example 4: herbicidal effect by soil treatment (Table 19, symbol H). The experiment is classed as in vivo, barnyard grass (Echinochloa crus-galli). The note with it: amount of applied herbicide 320 g/ha. The text has this: (§2) [Test Example 4] Herbicidal Effect Test by Soil Treatment
(§3) Sterilized diluvial soil was placed in a plastic box having a length of 21 cm, a width of 13 cm, and a depth of 7 cm. The seeds of each of southern crabgrass, green foxtail, barnyard grass, wild oat, blackgrass, Italian ryegrass, windgrass, velvetleaf, redroot pigweed, lambsquarters, chickweed, false cleavers, persian speedwell, corn, soybean, rice, wheat, beet, and rapeseed were sowed in a spot-like manner and covered with the soil having a thickness of about 1.5 cm. Subsequently, the emulsion agent of the compound of the present invention prepared according to Formulation Example 2 was diluted with water so as to achieve a predetermined herbicide amount, and the diluted emulsion agent was uniformly applied to the surface of the soil with a small-sized spray. The plastic box was placed in a greenhouse at 25° C. to 30° C. for growth of the plants. Three weeks after the herbicide application, the effect of the herbicide on each plant was evaluated according to the criteria of Test Example 1.

Experiment [3] deals with green foxtail. Kind of experiment: Test Example 5: herbicidal effect by foliage application, plastic box (Table 20, symbol G). The conditions noted are these: foliage application, 320 g/ha, three weeks after application. It is filed as in vivo, green foxtail (Setaria viridis). Put shortly: (§4)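 Sow seeds spot-wise in sterilized diluvial soil; cover with ~1.5 cm soil. Grow 14 days in greenhouse, 25° C. to 30° C. Spray foliage with emulsion diluted to predetermined amount. Rate effect after 3 weeks.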

Experiment [4] relates to redroot pigweed. Kind of experiment: Test Example 5: herbicidal effect by foliage application, plastic box (Table 20, symbol N). It is filed as in vivo, redroot pigweed (Amaranthus retroflexus). The conditions noted are these: foliage application, 320 g/ha, three weeks after application.
Text: [Test Example 5] Herbicidal Effect Test by Foliage Application
as §3, with “Thereafter, the plants were grown in a greenhouse at 25° C. to 30° C. After 14-day growth of the plants,” for “Subsequently,”, “a foliage part” for “the surface of the soil”, “spray.” for “spray. The plastic box was placed in a greenhouse at 25° C. to 30° C. for growth of the plants.”

The test system of a further experiment is rice flat sedge. Kind of experiment: Test Example 3: herbicidal effect by foliage application, Wagner pot (Table 18, symbol E). It is filed as in vivo, rice flat sedge (Cyperus iria). The conditions noted are these: amount of applied herbicide 320 g/ha. The method, boiled down: as §1
The test system of experiment [5] is barnyard grass. Kind of experiment: Test Example 5: herbicidal effect by foliage application, plastic box (Table 20, symbol H). The experiment is classed as in vivo, barnyard grass (Echinochloa crus-galli). The conditions noted are these: foliage application, 320 g/ha, three weeks after application. Put shortly: as §4
Experiment [6] concerns velvetleaf. Kind of experiment: Test Example 4: herbicidal effect by soil treatment (Table 19, symbol M). The experiment is classed as in vivo, velvetleaf (Abutilon theophrasti). The note with it: amount of applied herbicide 320 g/ha.
Text: as §2, §3

The subject of experiment [7] is green foxtail. Kind of experiment: Test Example 4: herbicidal effect by soil treatment (Table 19, symbol G). It is filed as in vivo, green foxtail (Setaria viridis). The note with it: amount of applied herbicide 320 g/ha.
Text: as §2, §3

Experiment [8] concerns southern crabgrass. Kind of experiment: Test Example 4: herbicidal effect by soil treatment (Table 19, symbol F). The experiment is classed as in vivo, southern crabgrass (Digitaria ciliaris). The conditions noted are these: amount of applied herbicide 320 g/ha.
Text: as §2, §3

Experiment [9] relates to lambsquarters. Kind of experiment: Test Example 4: herbicidal effect by soil treatment (Table 19, symbol O). The note with it: amount of applied herbicide 320 g/ha. It is filed as in vivo, lambsquarters (Chenopodium album).
Text: as §2, §3

Experiment [10] concerns lambsquarters. Kind of experiment: Test Example 5: herbicidal effect by foliage application, plastic box (Table 20, symbol O). The conditions noted are these: foliage application, 320 g/ha, three weeks after application. It is filed as in vivo, lambsquarters (Chenopodium album). The method, boiled down:
as §4

The test system of experiment [11] is redroot pigweed. Kind of experiment: Test Example 4: herbicidal effect by soil treatment (Table 19, symbol N). The conditions noted are these: amount of applied herbicide 320 g/ha. The experiment is classed as in vivo, redroot pigweed (Amaranthus retroflexus).
Text: as §2, §3

The test system of experiment [12] is velvetleaf. Kind of experiment: Test Example 5: herbicidal effect by foliage application, plastic box (Table 20, symbol M). The experiment is classed as in vivo, velvetleaf (Abutilon theophrasti). The note with it: foliage application, 320 g/ha, three weeks after application. The method, boiled down: as §4
Experiment [13] deals with southern crabgrass. Kind of experiment: Test Example 5: herbicidal effect by foliage application, plastic box (Table 20, symbol F). The experiment is classed as in vivo, southern crabgrass (Digitaria ciliaris). The conditions noted are these: foliage application, 320 g/ha, three weeks after application. The method, boiled down: as §4
The subject of the next experiment is Chinese sprangletop. Kind of experiment: Test Example 3: herbicidal effect by foliage application, Wagner pot (Table 18, symbol D). It is filed as in vivo, chinese sprangletop (Leptochloa chinensis). The note with it: amount of applied herbicide 320 g/ha. Put shortly: as §1

Consider `CC(CSc1ccc(-c2sc3ccc(F)cc3c2-c2c(O)c(C)nn(C)c2=O)cc1)=NO` [2-452], for which the “herbicidal effect on H: barnyard grass” value with barnyard grass [1] was 5 (Herbicidal rate of 90% or more (almost completely withered)). Further, the “herbicidal effect, H: barnyard grass” value in the experiment on barnyard grass [2] is on record as 0 (Herbicidal rate of 5% or less (almost no effect)). Also, the “G: green foxtail, herbicidal effect grade” value in the experiment on green foxtail [3] is recorded as 5 (Herbicidal rate of 90% or more (almost completely withered)). In addition, in the experiment with redroot pigweed [4], the “N: redroot pigweed, herbicidal effect grade” value was 5 (Herbicidal rate of 90% or more (almost completely withered)). Also, the “herbicidal effect on E: rice flat sedge” value with rice flat sedge is reported as 5 (Herbicidal rate of 90% or more (almost completely withered)). For the same compound, the “H: barnyard grass, herbicidal effect grade” value with barnyard grass [5] is 5 (Herbicidal rate of 90% or more (almost completely withered)). Moreover, in the experiment with velvetleaf [6], the “herbicidal effect, M: velvetleaf” value was 0 (Herbicidal rate of 5% or less (almost no effect)). Moreover, the “herbicidal effect, G: green foxtail” value in the experiment on green foxtail [7] was 0 (Herbicidal rate of 5% or less (almost no effect)). The “herbicidal effect, F: southern crabgrass” value in the experiment with southern crabgrass [8] was 0 (Herbicidal rate of 5% or less (almost no effect)). For the same compound, the “herbicidal effect, O: lambsquarters” value in the experiment with lambsquarters [9] was 4 (Herbicidal rate of 70% or more and less than 90%). In the experiment on lambsquarters [10], the “O: lambsquarters, herbicidal effect grade” value is 5 (Herbicidal rate of 90% or more (almost completely withered)). Also, the “herbicidal effect, N: redroot pigweed” value in the experiment with redroot pigweed [11] is 5 (Herbicidal rate of 90% or more (almost completely withered)). Besides, in the experiment with velvetleaf [12], the “M: velvetleaf, herbicidal effect grade” value is on record as 5 (Herbicidal rate of 90% or more (almost completely withered)). The “F: southern crabgrass, herbicidal effect grade” value with southern crabgrass [13] was 3 (Herbicidal rate of 40% or more and less than 70%). In addition, in the experiment with Chinese sprangletop, the “herbicidal effect on D: Chinese sprangletop” value is given as 0 (Herbicidal rate of 5% or less (almost no effect)).

With `Cc1nn(C)c(=O)c(-c2c(-c3ccc(OC(F)(F)F)cc3)sc3ccc(Cl)cc23)c1O` [2-457], in the experiment with barnyard grass [1], the “herbicidal effect on H: barnyard grass” value is 5 (Herbicidal rate of 90% or more (almost completely withered)). The “herbicidal effect, H: barnyard grass” value in the experiment with barnyard grass [2] is 0 (Herbicidal rate of 5% or less (almost no effect)). Besides, the “G: green foxtail, herbicidal effect grade” value in the experiment on green foxtail [3] is 3 (Herbicidal rate of 40% or more and less than 70%). Also, in the experiment with redroot pigweed [4], the “N: redroot pigweed, herbicidal effect grade” value is 4 (Herbicidal rate of 70% or more and less than 90%). In the experiment on rice flat sedge, the “herbicidal effect on E: rice flat sedge” value is on record as 5 (Herbicidal rate of 90% or more (almost completely withered)). Moreover, the “H: barnyard grass, herbicidal effect grade” value in the experiment with barnyard grass [5] is 5 (Herbicidal rate of 90% or more (almost completely withered)). The “herbicidal effect, M: velvetleaf” value in the experiment with velvetleaf [6] is 1 (Herbicidal rate of 5% or more and less than 20%). Further, in the experiment on green foxtail [7], the “herbicidal effect, G: green foxtail” value is listed as 0 (Herbicidal rate of 5% or less (almost no effect)). The “herbicidal effect, F: southern crabgrass” value in the experiment with southern crabgrass [8] is given as 0 (Herbicidal rate of 5% or less (almost no effect)). In the experiment with lambsquarters [9], the “herbicidal effect, O: lambsquarters” value is 2 (Herbicidal rate of 20% or more and less than 40%). Further, the “O: lambsquarters, herbicidal effect grade” value in the experiment with lambsquarters [10] is 5 (Herbicidal rate of 90% or more (almost completely withered)). For the same compound, in the experiment on redroot pigweed [11], the “herbicidal effect, N: redroot pigweed” value is 3 (Herbicidal rate of 40% or more and less than 70%). Further, the “M: velvetleaf, herbicidal effect grade” value in the experiment on velvetleaf [12] is 3 (Herbicidal rate of 40% or more and less than 70%). For the same compound, the “F: southern crabgrass, herbicidal effect grade” value in the experiment with southern crabgrass [13] is 3 (Herbicidal rate of 40% or more and less than 70%). The “herbicidal effect on D: Chinese sprangletop” value in the experiment on Chinese sprangletop is 3 (Herbicidal rate of 40% or more and less than 70%).
